The test system of the assay is OA articular chondrocytes. In words: OA chondrocyte phenotype gene expression screening of BMP-7 peptides (RT-qPCR). The assay is classed as cell-based, human. Also on record: key to COX-2 / COL2A1 / SOX9: [+] denotes a significantly increased expression of chondrogenic marker genes SOX9 and COL2A1, or a significantly decreased expression of OA phenotypic marker COX-2 in OA articular chondrocytes, in comparison to untreated OA articular chondrocytes; key to IL-6 / ADAMTS5 / COL10A / BAPX1/NKX3.2 / ALP / RUNX2: —: [-] denotes the absence of a significant effect or a significantly decreased expression of chondrogenic marker genes BAPX1/NKX3.2, or a significantly increased expression of OA phenotypic markers IL-6, ADAMTS5, COL10A, ALP and RUNX2 in OA articular chondrocytes, in comparison to untreated OA articular chondrocytes. The following applies: for ADAMTS5: Table 2 (FIG. 2: 10 nM, 24 hours, RT-qPCR, 28S rRNA normalized); for ADAMTS5 / ALP / BAPX1/NKX3.2 / COL10A / IL-6 / RUNX2: vs untreated OA articular chondrocytes; for ALP: Table 2 (FIG. 3: 10 nM, 24 hours, RT-qPCR, 28S rRNA normalized); for BAPX1/NKX3.2: Table 2 (FIG. 4: 10 nM, 24 hours, RT-qPCR, 28S rRNA normalized); for COL10A: Table 2 (FIG. 5: 10 nM, 24 hours, RT-qPCR, 28S rRNA normalized); for IL-6: Table 2 (FIG. 6: 10 nM, 24 hours, RT-qPCR, 28S rRNA normalized); for RUNX2: Table 2 (FIG. 7: 10 nM, 24 hours, RT-qPCR, 28S rRNA normalized); for COL2A1 / COX-2 / SOX9: Table 5, gene expression in OA articular chondrocytes vs untreated. Here is the method:
(§1) FIG. 2: The action of 20-mer peptides (10 nM) of SEQ ID NO: 2-17 (peptides with 1 or 2 amino acids intervals (18-19 amino acid overlap)) and a random peptide with a sequence according to SEQ ID NO: 49 on the expression of ADAMTS5 was determined on a validated pool of passage 2 OA human articular chondrocytes (n=18) and compared to full-length recombinant BMP-7 (1 nM). Samples were harvested after 24 hours and analyzed for indicated genes by RT-qPCR (normalized for 28S rRNA expression and relative to control conditions (no peptide exposure)). In the graphs, numbers on the x-axis represent individual peptides according to their SEQ ID NO's, error bars represent mean±SEM, statistical differences were calculated (one-way ANOVA with bonferroni correction) to control condition. *=p<0.05 lower than control condition for ADAMTS5. Random peptide is a peptide according to SEQ ID NO: 49.
as §1, with “3:” for “2:”, “ALP” for “ADAMTS5”, “ALP.” for “ADAMTS5.”
as §1, with “4:” for “2:”, “BAPX1/NKX3.2” for “ADAMTS5”, “BAPX1/NKX3.2.” for “ADAMTS5.”
as §1, with “5:” for “2:”, “COL10A1” for “ADAMTS5”, “COL10A1.” for “ADAMTS5.”
FIG. 6: The action of 20-mer peptides (10 nM) of SEQ ID NO: 2-17 (peptides with 1 or 2 amino acids intervals (18-19 amino acid overlap)) and a random peptide with a sequence according to SEQ ID NO: 49 on the expression of IL-6 was determined on a validated pool of passage 2 OA human articular chondrocytes (n=18) and compared to full-length recombinant BMP-7 (1 nM). […]
(Real-time PCR tracks product formation cycle by cycle.)

Turning to “1 (FINPETVPKPSSAPTQLNAISVLYFDDSSNVILKKYRNMVVRASGSH; listed as Homo sapiens) [compound 1]”, the ADAMTS5 result is given as “—”, the ALP entry is given as “—”, the BAPX1/NKX3.2 result is “—” and the COL10A entry was “—”. Also, the IL-6 result is listed as “—” and the RUNX2 result is on record as “—”.

As to “2 (FINPETVPKPSSAPTQLNAI; listed as Homo sapiens) [compound 2]”, the ADAMTS5 result was “—”, the ALP entry is reported as “—”, the BAPX1/NKX3.2 result is on record as “—” and the COL10A entry is “—”. The IL-6 entry is given as “—” and the RUNX2 entry is listed as “—”.

As for “3 (NPETVPKPSSAPTQLNAISV; listed as Homo sapiens) [compound 3]”, the ADAMTS5 result is “—”, the ALP entry was “—”, the BAPX1/NKX3.2 entry is on record as “—” and the COL10A entry is “—”. Besides, the IL-6 entry is recorded as “—” and the RUNX2 result is “—”.

On to “4 (ETVPKPSSAPTQLNAISVLY; listed as Homo sapiens) [compound 4]”, for which the ADAMTS5 result is on record as “—”, the ALP entry is “—”, the BAPX1/NKX3.2 result is “—” and the COL10A result is recorded as “—”. For the same substance, the IL-6 result is on record as “—” and the RUNX2 entry is on record as “—”.

Turning to “5 (VPKPSSAPTQLNAISVLYFD; listed as Homo sapiens) [compound 5]”, the ADAMTS5 entry is “—”, the ALP entry is listed as “—”, the BAPX1/NKX3.2 entry is “—” and the COL10A result is “—”. For the same substance, the IL-6 entry is “—” and the RUNX2 result is on record as “+”.

For the substance “6 (PKPSSAPTQLNAISVLYFDD; listed as Homo sapiens) [compound 6]”, the ADAMTS5 entry is on record as “+”, the ALP result is “+”, the BAPX1/NKX3.2 result was “+” and the COL10A entry is on record as “+”. Also, the IL-6 result is on record as “+”, the RUNX2 entry is reported as “+”, the COL2A1 result is recorded as “+” and the COX-2 entry was “+”. Also, the SOX9 result is on record as “+”.

For “7 (KPSSAPTQLNAISVLYFDDS; listed as Homo sapiens) [compound 7]”, the ADAMTS5 entry is recorded as “+”, the ALP entry was “+”, the BAPX1/NKX3.2 result is given as “+” and the COL10A entry is on record as “+”. The IL-6 entry is “+”, the RUNX2 result is on record as “+”, the COL2A1 result is on record as “+” and the COX-2 result was “+”. The SOX9 result is given as “+”.

In the case of “8 (SSAPTQLNAISVLYFDDSSN; listed as Homo sapiens) [compound 8]”, the ADAMTS5 result was “+”, the ALP entry is recorded as “+”, the BAPX1/NKX3.2 entry was “+” and the COL10A result is recorded as “+”. In addition, the IL-6 result is given as “+”, the RUNX2 entry is reported as “+”, the COL2A1 entry was “+” and the COX-2 entry is reported as “+”. Besides, the SOX9 entry was “+”.

“9 (APTQLNAISVLYFDDSSNVI; listed as Homo sapiens) [compound 9]”: the ADAMTS5 result is on record as “+”, the ALP entry is given as “+”, the BAPX1/NKX3.2 result was “+” and the COL10A entry is “-”. Besides, the IL-6 result is reported as “+”, the RUNX2 entry is recorded as “+”, the COL2A1 result is recorded as “+” and the COX-2 entry is reported as “+”. The SOX9 entry is on record as “+”.

In the case of “10 (TQLNAISVLYFDDSSNVILK; listed as Homo sapiens) [compound 10]”, the ADAMTS5 result was “+”, the ALP entry is given as “+”, the BAPX1/NKX3.2 entry is reported as “+” and the COL10A entry is “-”. In addition, the IL-6 result is reported as “+”, the RUNX2 result is “+”, the COL2A1 entry is listed as “+” and the COX-2 result is “+”. Besides, the SOX9 result was “+”.

Values taken from patent US11141462B2, “Method for the treatment or prevention of osteoarthritis” (Chondropeptix B.V., priority 2016, dated 2021).
